Experimental data from ChEMBL document CHEMBL3627608, “Crystal structures of human RIP2 kinase catalytic domain complexed with ATP-competitive inhibitors: Foundations for understanding inhibitor selectivity” (Bioorg Med Chem, 2015).

Experiments:
[1] = biological target: Mitogen-activated protein kinase 3 (Homo sapiens) (UniProt P27361); experiment: Inhibition of ERK1 (unknown origin) at 10 uM after 120 mins P33 radiolabeled kinase activity assay
[2] = biological target: T1, Rhodopsin kinase GRK7 (Homo sapiens) (UniProt Q8WTQ7); experiment: Inhibition of GRK7 (unknown origin) at 10 uM after 120 mins P33 radiolabeled kinase activity assay
T1 sequence (whole entry): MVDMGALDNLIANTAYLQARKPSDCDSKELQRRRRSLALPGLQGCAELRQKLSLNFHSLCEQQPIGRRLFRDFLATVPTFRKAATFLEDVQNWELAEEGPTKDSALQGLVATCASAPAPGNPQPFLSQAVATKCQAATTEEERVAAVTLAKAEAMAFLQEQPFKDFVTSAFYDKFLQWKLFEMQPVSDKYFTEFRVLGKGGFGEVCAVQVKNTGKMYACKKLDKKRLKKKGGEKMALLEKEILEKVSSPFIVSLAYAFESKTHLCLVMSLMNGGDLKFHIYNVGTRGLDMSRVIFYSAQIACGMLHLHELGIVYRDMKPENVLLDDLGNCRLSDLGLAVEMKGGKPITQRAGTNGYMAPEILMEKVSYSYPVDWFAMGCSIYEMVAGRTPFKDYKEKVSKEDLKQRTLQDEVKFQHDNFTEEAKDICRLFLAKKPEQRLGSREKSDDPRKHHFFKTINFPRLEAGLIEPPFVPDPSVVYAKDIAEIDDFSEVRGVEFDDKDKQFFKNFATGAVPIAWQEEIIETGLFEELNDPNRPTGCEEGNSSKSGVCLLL

[3] = biological target: Serine/threonine-protein kinase Nek7 (Homo sapiens) (UniProt Q8TDX7); experiment: Inhibition of NEK7 (unknown origin) at 10 uM after 120 mins P33 radiolabeled kinase activity assay
[4] = biological target: Tyrosine-protein kinase JAK3 (Homo sapiens) (UniProt P52333); experiment: Inhibition of JAK3 (unknown origin) at 10 uM after 120 mins P33 radiolabeled kinase activity assay
[5] = biological target: Rho-associated protein kinase 1 (Homo sapiens) (UniProt Q13464); experiment: Inhibition of ROCK1 (unknown origin) at 10 uM after 120 mins P33 radiolabeled kinase activity assay
Chain of Rho-associated protein kinase 1 (Homo sapiens) (Q13464 2-1354 limits assumed): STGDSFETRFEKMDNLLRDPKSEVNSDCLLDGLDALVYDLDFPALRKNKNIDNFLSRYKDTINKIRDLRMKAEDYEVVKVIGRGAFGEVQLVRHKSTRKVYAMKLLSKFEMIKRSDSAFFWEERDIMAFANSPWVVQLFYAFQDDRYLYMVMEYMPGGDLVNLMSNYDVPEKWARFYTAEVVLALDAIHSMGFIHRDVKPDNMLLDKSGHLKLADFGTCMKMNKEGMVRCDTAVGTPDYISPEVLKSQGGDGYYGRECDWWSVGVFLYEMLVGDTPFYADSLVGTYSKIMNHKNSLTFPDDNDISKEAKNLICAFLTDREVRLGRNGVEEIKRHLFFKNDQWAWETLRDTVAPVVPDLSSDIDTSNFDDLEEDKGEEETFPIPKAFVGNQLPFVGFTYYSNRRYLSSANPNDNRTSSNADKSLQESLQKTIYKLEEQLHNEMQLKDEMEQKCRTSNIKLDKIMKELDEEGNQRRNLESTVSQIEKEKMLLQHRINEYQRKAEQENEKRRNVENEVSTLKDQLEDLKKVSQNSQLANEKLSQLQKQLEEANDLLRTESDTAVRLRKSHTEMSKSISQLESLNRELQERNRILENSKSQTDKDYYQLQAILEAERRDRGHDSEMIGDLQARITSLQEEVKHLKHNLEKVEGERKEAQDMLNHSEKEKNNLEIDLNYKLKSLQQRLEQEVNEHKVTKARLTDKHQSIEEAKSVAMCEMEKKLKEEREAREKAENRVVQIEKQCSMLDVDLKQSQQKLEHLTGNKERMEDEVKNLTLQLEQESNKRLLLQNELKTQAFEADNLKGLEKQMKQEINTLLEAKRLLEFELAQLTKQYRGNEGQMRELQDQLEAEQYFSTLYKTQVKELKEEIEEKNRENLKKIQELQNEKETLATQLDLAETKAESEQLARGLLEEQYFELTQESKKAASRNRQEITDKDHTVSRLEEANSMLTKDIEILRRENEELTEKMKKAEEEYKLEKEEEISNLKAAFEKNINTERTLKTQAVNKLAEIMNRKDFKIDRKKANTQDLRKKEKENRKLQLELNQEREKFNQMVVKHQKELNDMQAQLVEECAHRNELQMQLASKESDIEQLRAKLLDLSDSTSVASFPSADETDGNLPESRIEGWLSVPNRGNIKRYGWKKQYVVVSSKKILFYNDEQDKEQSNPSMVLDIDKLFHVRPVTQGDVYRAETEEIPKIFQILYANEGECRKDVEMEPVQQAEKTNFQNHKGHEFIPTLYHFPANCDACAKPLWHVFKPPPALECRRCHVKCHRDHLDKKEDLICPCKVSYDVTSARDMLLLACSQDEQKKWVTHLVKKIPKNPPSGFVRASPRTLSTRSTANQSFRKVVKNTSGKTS

[6] = biological target: SRSF protein kinase 3 (Homo sapiens) (UniProt Q9UPE1); experiment: Inhibition of MSSK1 (unknown origin) at 10 uM after 120 mins P33 radiolabeled kinase activity assay
[7] = biological target: Serine/threonine-protein kinase Sgk2 (Homo sapiens) (UniProt Q9HBY8); experiment: Inhibition of SGK2 (unknown origin) at 10 uM after 120 mins P33 radiolabeled kinase activity assay
[8] = biological target: Serine/threonine-protein kinase SIK3 (Homo sapiens) (UniProt Q9Y2K2); experiment: Inhibition of SIK3 (unknown origin) at 10 uM after 120 mins P33 radiolabeled kinase activity assay
Chain of Serine/threonine-protein kinase SIK3 (Homo sapiens) (Q9Y2K2 whole entry, looked up): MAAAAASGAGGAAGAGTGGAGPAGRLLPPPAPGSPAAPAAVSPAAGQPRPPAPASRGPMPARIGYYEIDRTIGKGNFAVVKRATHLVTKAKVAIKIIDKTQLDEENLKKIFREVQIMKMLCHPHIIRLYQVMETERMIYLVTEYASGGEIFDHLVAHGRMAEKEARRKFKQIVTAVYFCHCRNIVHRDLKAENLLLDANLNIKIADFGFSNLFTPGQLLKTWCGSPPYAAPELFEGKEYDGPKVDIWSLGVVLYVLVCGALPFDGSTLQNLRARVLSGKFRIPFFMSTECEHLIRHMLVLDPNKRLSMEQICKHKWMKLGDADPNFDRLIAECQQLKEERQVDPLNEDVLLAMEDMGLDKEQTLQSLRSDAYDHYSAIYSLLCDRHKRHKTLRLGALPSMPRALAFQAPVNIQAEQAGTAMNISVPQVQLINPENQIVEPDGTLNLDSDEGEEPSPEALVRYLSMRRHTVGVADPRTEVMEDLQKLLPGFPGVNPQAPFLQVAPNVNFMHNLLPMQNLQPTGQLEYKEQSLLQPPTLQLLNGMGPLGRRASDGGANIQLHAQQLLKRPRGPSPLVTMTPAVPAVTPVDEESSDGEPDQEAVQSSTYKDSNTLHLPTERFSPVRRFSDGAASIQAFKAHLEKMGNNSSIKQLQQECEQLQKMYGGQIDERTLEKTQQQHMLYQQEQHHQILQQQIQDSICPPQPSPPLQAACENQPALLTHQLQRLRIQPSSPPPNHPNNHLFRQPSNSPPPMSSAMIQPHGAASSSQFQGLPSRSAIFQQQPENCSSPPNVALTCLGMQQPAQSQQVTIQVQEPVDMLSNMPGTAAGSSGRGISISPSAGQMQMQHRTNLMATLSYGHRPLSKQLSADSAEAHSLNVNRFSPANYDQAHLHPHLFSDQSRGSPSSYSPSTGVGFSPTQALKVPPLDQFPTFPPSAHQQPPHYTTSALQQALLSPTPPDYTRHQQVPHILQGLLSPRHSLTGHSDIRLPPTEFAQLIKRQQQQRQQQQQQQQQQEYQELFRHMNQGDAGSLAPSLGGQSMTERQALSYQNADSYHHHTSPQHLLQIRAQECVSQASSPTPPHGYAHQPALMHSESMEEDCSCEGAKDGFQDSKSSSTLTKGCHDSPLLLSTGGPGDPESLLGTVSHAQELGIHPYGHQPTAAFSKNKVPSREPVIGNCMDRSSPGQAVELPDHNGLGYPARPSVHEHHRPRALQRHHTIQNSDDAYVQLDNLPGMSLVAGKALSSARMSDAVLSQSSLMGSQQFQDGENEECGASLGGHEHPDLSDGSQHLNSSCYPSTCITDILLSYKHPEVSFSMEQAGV

[9] = biological target: T2, Tyrosine-protein kinase Tec (Homo sapiens) (UniProt P42680); experiment: Inhibition of TEC (unknown origin) at 10 uM after 120 mins P33 radiolabeled kinase activity assay
T2 sequence (whole entry): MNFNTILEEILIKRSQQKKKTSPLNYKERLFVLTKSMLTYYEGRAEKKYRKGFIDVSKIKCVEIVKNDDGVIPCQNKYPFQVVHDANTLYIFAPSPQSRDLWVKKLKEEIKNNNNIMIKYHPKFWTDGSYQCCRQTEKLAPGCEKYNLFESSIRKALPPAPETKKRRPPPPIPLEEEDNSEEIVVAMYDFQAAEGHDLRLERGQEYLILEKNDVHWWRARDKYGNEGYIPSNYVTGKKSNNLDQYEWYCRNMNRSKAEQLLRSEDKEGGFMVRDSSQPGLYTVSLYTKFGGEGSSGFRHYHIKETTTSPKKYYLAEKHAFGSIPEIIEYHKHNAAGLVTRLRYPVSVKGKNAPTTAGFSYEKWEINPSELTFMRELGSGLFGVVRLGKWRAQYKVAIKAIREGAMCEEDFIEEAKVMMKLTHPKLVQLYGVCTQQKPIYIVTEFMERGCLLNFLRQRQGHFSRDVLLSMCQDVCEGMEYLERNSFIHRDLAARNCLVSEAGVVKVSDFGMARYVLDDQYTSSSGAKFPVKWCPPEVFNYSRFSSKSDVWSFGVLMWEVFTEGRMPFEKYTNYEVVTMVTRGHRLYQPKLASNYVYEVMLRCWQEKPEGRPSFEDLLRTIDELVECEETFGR

[10] = biological target: T3, Testis-specific serine/threonine-protein kinase 2 (Homo sapiens) (UniProt Q96PF2); experiment: Inhibition of TSSK2 (unknown origin) at 10 uM after 120 mins P33 radiolabeled kinase activity assay
T3 sequence (whole entry): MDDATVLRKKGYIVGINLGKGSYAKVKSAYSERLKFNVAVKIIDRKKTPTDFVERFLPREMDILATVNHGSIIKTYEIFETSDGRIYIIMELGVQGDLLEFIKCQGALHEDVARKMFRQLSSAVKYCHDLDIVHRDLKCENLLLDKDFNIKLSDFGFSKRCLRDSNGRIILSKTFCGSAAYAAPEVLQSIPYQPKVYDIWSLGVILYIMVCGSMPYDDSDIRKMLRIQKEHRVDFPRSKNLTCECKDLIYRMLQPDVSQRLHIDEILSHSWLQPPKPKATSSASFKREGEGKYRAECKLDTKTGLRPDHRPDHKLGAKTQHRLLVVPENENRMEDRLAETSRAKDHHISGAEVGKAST

[11] = biological target: Tyrosine-protein kinase ABL1 (Homo sapiens) (UniProt P00519); experiment: Inhibition of ABL1 (unknown origin) at 10 uM after 120 mins P33 radiolabeled kinase activity assay
Chain of Tyrosine-protein kinase ABL1 (Homo sapiens) (P00519 whole entry): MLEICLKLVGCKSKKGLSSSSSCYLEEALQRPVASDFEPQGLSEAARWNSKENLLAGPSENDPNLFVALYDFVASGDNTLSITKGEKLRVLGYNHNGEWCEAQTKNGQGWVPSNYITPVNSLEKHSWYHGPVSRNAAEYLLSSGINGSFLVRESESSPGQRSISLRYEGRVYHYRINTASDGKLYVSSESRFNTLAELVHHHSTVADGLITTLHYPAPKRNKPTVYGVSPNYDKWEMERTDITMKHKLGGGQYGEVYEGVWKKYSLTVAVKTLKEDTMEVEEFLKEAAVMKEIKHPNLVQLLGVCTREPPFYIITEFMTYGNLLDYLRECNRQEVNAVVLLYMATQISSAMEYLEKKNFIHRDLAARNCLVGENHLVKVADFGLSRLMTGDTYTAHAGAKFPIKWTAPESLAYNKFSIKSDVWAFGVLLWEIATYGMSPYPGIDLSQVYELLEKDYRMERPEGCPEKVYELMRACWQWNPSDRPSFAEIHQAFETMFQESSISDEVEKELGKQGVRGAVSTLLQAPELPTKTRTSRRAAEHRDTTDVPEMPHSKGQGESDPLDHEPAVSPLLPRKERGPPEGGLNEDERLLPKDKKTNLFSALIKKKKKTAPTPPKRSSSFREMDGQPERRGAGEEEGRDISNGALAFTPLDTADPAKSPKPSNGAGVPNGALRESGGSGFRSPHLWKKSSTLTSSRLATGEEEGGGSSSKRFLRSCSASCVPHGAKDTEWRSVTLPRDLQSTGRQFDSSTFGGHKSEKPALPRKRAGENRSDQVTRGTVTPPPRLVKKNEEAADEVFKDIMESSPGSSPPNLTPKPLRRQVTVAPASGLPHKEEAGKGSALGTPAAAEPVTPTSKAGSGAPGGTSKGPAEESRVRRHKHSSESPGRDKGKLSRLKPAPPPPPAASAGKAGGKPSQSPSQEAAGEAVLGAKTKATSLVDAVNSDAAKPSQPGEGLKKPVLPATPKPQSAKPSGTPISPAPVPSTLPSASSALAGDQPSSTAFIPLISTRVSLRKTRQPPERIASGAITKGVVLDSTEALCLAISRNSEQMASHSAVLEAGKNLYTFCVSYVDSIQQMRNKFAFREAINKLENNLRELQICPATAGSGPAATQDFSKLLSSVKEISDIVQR

[12] = biological target: Calcium/calmodulin-dependent protein kinase kinase 2 (Homo sapiens) (UniProt Q96RR4); experiment: Inhibition of CAMKK2 (unknown origin) at 10 uM after 120 mins P33 radiolabeled kinase activity assay
[13] = biological target: Cyclin-Y/Cyclin-dependent kinase 16 (Homo sapiens) (UniProt Q00536+Q8ND76); experiment: Inhibition of CDK16/cyclin Y (unknown origin) at 10 uM after 120 mins P33 radiolabeled kinase activity assay; assay type: protein-complex assay
[14] = biological target: CDK4/Cyclin D3 (Homo sapiens) (UniProt P11802+P30281); experiment: Inhibition of CDK4/cyclin D3 (unknown origin) at 10 uM after 120 mins P33 radiolabeled kinase activity assay; assay type: protein-complex assay
[15] = biological target: Mitogen-activated protein kinase kinase kinase kinase 2 (Homo sapiens) (UniProt Q12851); experiment: Inhibition of GCK (unknown origin) at 10 uM after 120 mins P33 radiolabeled kinase activity assay
Chain of Mitogen-activated protein kinase kinase kinase kinase 2 (Homo sapiens) (Q12851 whole entry, looked up): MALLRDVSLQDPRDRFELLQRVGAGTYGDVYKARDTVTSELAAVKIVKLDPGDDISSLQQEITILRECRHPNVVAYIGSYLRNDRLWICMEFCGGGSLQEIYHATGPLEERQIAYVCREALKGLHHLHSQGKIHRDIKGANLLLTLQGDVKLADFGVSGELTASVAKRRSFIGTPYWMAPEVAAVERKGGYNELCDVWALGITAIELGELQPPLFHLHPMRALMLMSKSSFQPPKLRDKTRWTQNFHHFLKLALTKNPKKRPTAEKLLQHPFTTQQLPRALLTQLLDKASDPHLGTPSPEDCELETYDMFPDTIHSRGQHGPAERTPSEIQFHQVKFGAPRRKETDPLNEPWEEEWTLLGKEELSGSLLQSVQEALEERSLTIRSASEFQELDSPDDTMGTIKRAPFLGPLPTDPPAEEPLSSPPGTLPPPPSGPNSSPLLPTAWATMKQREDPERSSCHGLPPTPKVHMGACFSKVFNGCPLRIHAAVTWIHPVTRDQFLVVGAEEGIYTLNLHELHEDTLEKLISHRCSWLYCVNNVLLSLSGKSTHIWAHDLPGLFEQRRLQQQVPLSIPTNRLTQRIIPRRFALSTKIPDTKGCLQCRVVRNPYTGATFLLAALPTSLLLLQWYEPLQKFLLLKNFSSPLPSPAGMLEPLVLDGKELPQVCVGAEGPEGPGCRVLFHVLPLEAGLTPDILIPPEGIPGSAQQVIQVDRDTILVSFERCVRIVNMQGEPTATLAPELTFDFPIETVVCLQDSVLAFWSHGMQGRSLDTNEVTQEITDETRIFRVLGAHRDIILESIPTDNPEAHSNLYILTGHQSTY

[16] = biological target: Lymphokine-activated killer T-cell-originated protein kinase (Homo sapiens) (UniProt Q96KB5); experiment: Inhibition of PBK (unknown origin) at 10 uM after 120 mins P33 radiolabeled kinase activity assay
[17] = biological target: Serine/threonine-protein kinase 3 (Homo sapiens) (UniProt Q13188); experiment: Inhibition of MST2 (unknown origin) at 10 uM after 120 mins P33 radiolabeled kinase activity assay
[18] = biological target: Testis-specific serine/threonine-protein kinase 6 (Homo sapiens) (UniProt Q9BXA6); experiment: Inhibition of SSTK (unknown origin) at 10 uM after 120 mins P33 radiolabeled kinase activity assay

Chain of Mitogen-activated protein kinase 3 (Homo sapiens) (P27361 whole entry): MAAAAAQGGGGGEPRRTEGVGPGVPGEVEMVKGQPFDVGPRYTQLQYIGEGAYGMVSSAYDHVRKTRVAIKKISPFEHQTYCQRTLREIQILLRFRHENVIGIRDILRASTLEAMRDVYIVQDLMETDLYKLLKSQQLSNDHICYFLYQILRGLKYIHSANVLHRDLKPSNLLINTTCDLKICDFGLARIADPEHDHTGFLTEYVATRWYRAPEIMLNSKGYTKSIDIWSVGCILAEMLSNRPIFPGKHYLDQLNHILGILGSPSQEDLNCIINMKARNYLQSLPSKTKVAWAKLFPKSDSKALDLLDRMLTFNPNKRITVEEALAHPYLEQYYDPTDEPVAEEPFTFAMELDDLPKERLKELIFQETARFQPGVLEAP

inhibition [1] [%] | inhibition [2] [%] | inhibition [3] [%] | inhibition [4] [%] | inhibition [5] [%] | inhibition [6] [%] | inhibition [7] [%] | inhibition [8] [%] | inhibition [9] [%] | inhibition [10] [%] | inhibition [11] [%] | inhibition [12] [%] | inhibition [13] [%] | inhibition [14] [%] | inhibition [15] [%] | inhibition [17] [%] | inhibition [18] [%] | SMILES | inhibition [16] [%]
-3.91 | 25.3 | 33.7 | 15.9 | -6.9 | -1.37 | 50 | 99.6 | 89.2 | 1.83 | 98.1 | -1.4 | 92 | 26.6 | -0.78 | – | – | CS(=O)(=O)c1cccc(Nc2nccc(-c3sc(N4CCOCC4)nc3-c3cccc(NS(=O)(=O)c4c(F)cccc4F)c3)n2)c1 | –
1.41 | 2.32 | 6.02 | -7.14 | – | – | – | 6.53 | 5.53 | 3.82 | 65.6 | – | – | – | -3.21 | -5.33 | -0.51 | COCCNC(=O)c1ccc2c(c1)nc(-c1cnc(-c3ccc(Cl)cc3)[nH]1)n2CCOC | 11.6
3.03 | 2.1 | – | – | 9.07 | 85 | 15.5 | 9.52 | 3.88 | 1.87 | 88.4 | 54.2 | 84.5 | 92.5 | 57.4 | -4.9 | 7.1 | CC(C)(C)c1cc(NC(=O)Nc2ccc(Oc3ccncc3)cc2)no1 | 12.2
